Results as given in patent publication US20180185309A1, “METHODS AND COMPOSITIONS FOR TREATING NEPHROPATHY” (The Regents of the University of California, priority 2015, published 2018).

Legend:
sEH = target: T1, sEH (Homo sapiens, UniProt P34913); assay: sEH inhibition, assay not specified; assay type: biochemical
T1 sequence (P34913 1-555): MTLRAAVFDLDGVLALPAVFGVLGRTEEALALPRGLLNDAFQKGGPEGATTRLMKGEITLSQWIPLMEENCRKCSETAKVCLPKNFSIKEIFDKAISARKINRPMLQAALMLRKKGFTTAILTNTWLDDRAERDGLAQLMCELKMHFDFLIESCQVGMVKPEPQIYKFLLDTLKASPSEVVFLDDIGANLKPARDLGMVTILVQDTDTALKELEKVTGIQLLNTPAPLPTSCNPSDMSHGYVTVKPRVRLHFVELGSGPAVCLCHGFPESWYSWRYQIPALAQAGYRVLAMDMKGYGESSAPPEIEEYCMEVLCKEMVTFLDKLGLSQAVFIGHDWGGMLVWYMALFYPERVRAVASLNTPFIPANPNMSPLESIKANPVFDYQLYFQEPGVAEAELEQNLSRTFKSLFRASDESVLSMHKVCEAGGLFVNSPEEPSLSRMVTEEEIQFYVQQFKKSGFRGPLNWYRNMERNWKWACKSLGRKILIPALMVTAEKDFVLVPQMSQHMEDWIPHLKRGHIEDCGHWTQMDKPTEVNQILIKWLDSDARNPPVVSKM
Source text: “Soluble epoxide hydrolase” (“sEH”) is an epoxide hydrolase which in endothelial and smooth muscle cells converts EETs to dihydroxy derivatives called dihydroxyeicosatrienoic acids (“DHETs”). The cloning and sequence of the murine sEH is set forth in Grant et al., J. Biol. Chem. 268(23):17628-17633 (1993). The cloning, sequence, and accession numbers of the human sEH sequence are set forth in Beetham et al., Arch. Biochem. Biophys. 305(1):197-201 (1993). The amino acid sequence of human sEH is SEQ ID NO.:1, while the nucleic acid sequence encoding the human sEH is SEQ ID NO.:2. (The sequence set forth as SEQ ID NO.:2 is the coding portion of the sequence set forth in the Beetham et al. 1993 paper and in the NCBI Entrez Nucleotide Browser at accession number L05779, which include the 5′ untranslated region and the 3′ untranslated region.) The evolution and nomenclature of the gene is discussed in Beetham et al., DNA Cell Biol. 14(1):61-71 (1995). Soluble epoxide hydrolase represents a single highly conserved gene product with over 90% homology between rodent and human (Arand et al., FEBS Lett., 338:251-256 (1994)). Unless otherwise specified, as used herein, the terms “soluble epoxide hydrolase” and “sEH” refer to human sEH. […]

[1] = Metabolic stability, method not specified; assay type: in vitro ADME
[2] = chemical chaperones that inhibit ER stress; cited from earlier work

activity on sEH (sEH) | metabolic stability [1] | SMILES | DN disease progression [2]
particularly high activity | metabolically stable | CCCCCCCCCCCCNC(=O)NC12CC3CC(CC(C3)C1)C2 [ADU, N-Adamantyl-N′-dodecyl urea] | –
– | – | C[C@H](CCC(=O)NCCS(=O)(=O)O)[C@H]1CC[C@H]2[C@@H]3[C@@H](O)C[C@@H]4C[C@H](O)CC[C@]4(C)[C@H]3CC[C@]12C [TUDCA, tauroursodeoxycholic acid] | slow DN disease progression
– | – | O=C(O)CCCc1ccccc1 [4-PBA, 4-phenyl butyric acid] | slow DN disease progression
